From patent US8759355B2, “Aryl pyrimidine derivatives, preparation methods and pharmaceutical uses thereof” (Institute of Pharmacology and Toxicology Academy of …, priority 2008, dated 2014)

Tested on: not given
Experiment: not given
Conditions: not given

| Compound | melting point [°C] |
| --- | --- |
| O=C(O)CCc1ccc(OCc2ccnc(-c3ccc(F)cc3)n2)cc1 [Example 1, 3-{4-[2-(4-fluorophenyl)-pyrimidin-4-yl-methoxy]-phenyl}-propionic acid] | 167.2 to 168 |
| O=C(O)CCc1ccc(OCc2ccnc(-c3ccc(Cl)cc3)n2)cc1 [Example 2, 3-{4-[2-(4-chlorophenyl)-pyrimidin-4-yl-methoxy]-phenyl}-propionic acid] | 168.3 to 169.4 |
| O=C(O)CCc1ccc(OCc2ccnc(-c3ccc(Br)cc3)n2)cc1 [Example 3, 3-{4-[2-(4-bromophenyl)-pyrimidin-4-yl-methoxy]-phenyl}-propionic acid] | 168 to 168.8 |
| O=C(O)CCc1ccc(OCc2ccnc(-c3ccc(C(F)(F)F)cc3)n2)cc1 [Example 4, 3-{4-[2-(4-trifluoromethylphenyl)-pyrimidin-4-yl-methoxy]-phenyl}-propionic acid] | 146.6 to 147.5 |

Other lines, results leading:

| melting point [°C] | Compound |
| --- | --- |
| 143.8 to 144.1 | O=C(O)CCc1ccc(OCc2ccnc(-c3c(F)cc(F)cc3F)n2)cc1 [Example 5, 3-{4-[2-(2,4,6-trifluorophenyl)-pyrimidin-4-yl-methoxy]-phenyl}-propionic acid] |
| 159.3 to 160.2 | Cc1cc(SCc2ccnc(-c3ccc(C(F)(F)F)cc3)n2)ccc1OCC(=O)O [example 7, {2-methyl-4-[2-(4-trifluoromethylphenyl)-pyrimidin-4-yl-methylthio]phenoxy}-acetic acid] |
| 139.5 to 140.4 | Cc1cc(SCc2ccnc(-c3ccc(F)cc3)n2)ccc1OC(C)(C)C(=O)O [example 18, 2-methyl-2-{2-methyl-4-[2-(4-fluorophenyl)-pyrimidin-4-yl-methylthio]-phenoxy}-propionic acid] |

Target: T1, human PPARδ (Homo sapiens, UniProt Q03181)
T1 construct: expressed in transfected cells; host or cells: HEK-293 cells (transient co-transfection)
T1 sequence (Q03181 211-439 limits assumed): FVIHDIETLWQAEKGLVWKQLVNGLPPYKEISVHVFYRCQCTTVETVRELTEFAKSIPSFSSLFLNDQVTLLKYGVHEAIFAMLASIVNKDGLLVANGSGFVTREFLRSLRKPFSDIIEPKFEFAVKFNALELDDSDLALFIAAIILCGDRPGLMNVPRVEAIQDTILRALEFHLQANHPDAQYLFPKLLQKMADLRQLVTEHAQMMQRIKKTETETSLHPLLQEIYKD
Experiment: Transfection determination: pM-hPPARδ/GAL4 chimeric receptor luciferase reporter, transient transfection in HEK-293 cells
Format: cell-based
Conditions: 1 μM, luciferase read 24 hours after administration, GW501516 positive control
Text: Transfection Determination
The functional titration of the transient transfection of the compounds in HEK-293 cells was screened to determine their ability to activate PPAR subtype. Chimeric acceptor system was built in advance to compare relative transcription activity of acceptor subtype to same target gene and prevent the complexness of endogenous acceptor activation due to the explanation of results. Ligand binding domain of human PPARδ was fused to yeast transcription factor GAL4DNA binding domain, and then linked to expression carrier pM of mammal to build pM-hPPARδ/GAL4 plasmids. GAL4DNA binding region was connected to pB4-tk-luc to pB4-RES-tk-luc (a report gene of firefly luciferin enzyme containing 5 templates of GAL4DNA binding site). pRL-CMV-Rluc was used as internal standard to correct transfection efficiency and endogenous influence and reduce experimental error.
HEK-293 cells were grown in 48 wells plate, the density of cells was 2-4×10^4/well. The culture medium was 1640 of 10% defatted FCS free of phenol red and antibiotics. After 48 hours, the culture medium was changed as 1640 of 5% defatted FCS free of phenol red and antibiotics, and then pM-hPPARδ/GAL4, pB4-RES-tk-luc and pRL-CMV-Rluc plasmids were co-transfected in HEK-293 cells. The drug was administered after 24 hours, and the luminous intensity of luciferin enzyme was determined 24 hours after administration. The control was 0.2% DMSO.

| Activation ability % (Activation of part of compounds for PPARδ) [%] | Compound |
| --- | --- |
| 144.86 | 2-methyl-2-{2-methyl-4-[2-(4-trichloromethylphenyl)-pyrimidin-4-yl-methylthio]-phenoxy}-propionic acid [example 20] |
| 94.86 | Cc1cc(SCc2ccnc(-c3ccc(C(F)(F)F)cc3)n2)ccc1OCC(=O)O [example 7, {2-methyl-4-[2-(4-trifluoromethylphenyl)-pyrimidin-4-yl-methylthio]phenoxy}-acetic acid] |
| 135.46 | Cc1cc(SCc2ccnc(-c3ccc(F)cc3)n2)ccc1OCC(=O)O [example 8, {2-methyl-4-[2-(4-fluorophenyl)-pyrimidin-4-yl-methylthio]-phenoxy}-acetic acid] |
| 88.35 | Cc1cc(SCc2ccnc(-c3ccc(Cl)cc3)n2)ccc1OCC(=O)O [example 9, {2-methyl-4-[2-(4-chlorophenyl)-pyrimidin-4-yl-methylthio]-phenoxy}-acetic acid] |
| 108.55 | Cc1cc(SCc2ccnc(-c3ccc(Br)cc3)n2)ccc1OCC(=O)O [example 10, {2-methyl-4-[2-(4-bromophenyl)-pyrimidin-4-yl-methylthio]-phenoxy}-acetic acid] |
| 119.51 | Cc1cc(SCc2ccnc(-c3ccc(Cl)cc3)n2)ccc1OC(C)(C)C(=O)O [example 17, 2-methyl-2-{2-methyl-4-[2-(4-chlorophenyl)-pyrimidin-4-yl-methylthio]-phenoxy}-propionic acid] |
| 103.26 | Cc1cc(SCc2ccnc(-c3ccc(F)cc3)n2)ccc1OC(C)(C)C(=O)O [example 18, 2-methyl-2-{2-methyl-4-[2-(4-fluorophenyl)-pyrimidin-4-yl-methylthio]-phenoxy}-propionic acid] |
